What all share (assay type): cell-based
Data set [1] concerns Bacillus subtilis ATCC strain 6633. The experiment in a line: NCCLS broth microdilution test, minimum inhibitory concentration. The following applies: for minimum inhibitory concentration / MIC: B. subtilis; for MIC: Bacillus subtilis, ATCC6633; for antimicrobial activity / potency (in words): against the target organism B. subtilis. How it is done:
Minimum inhibitory concentrations with Bacillus subtilis ATCC strain 6633 were determined using the National Committee for Clinical Laboratory Standards broth microdilution test (NCCLS, 2000. NCCLS Document M7-A5—Methods for Dilution Antimicrobial Susceptibility Tests for Bacteria that Grow Aerobically, Approved Standard—Fifth Edition). The test was standardised using penicillin G and gentamicin with Staphyloccous aureus ATCC strains 29213 and 25923 and Enterococcus faecalis ATCC strain 29212. Results of standardisation were assessed according to the NCCLS standards (NCCLS, 2000. NCCLS Document M100-S10(M7)—Performance Standards for Antimicrobial Susceptibility Testing; Tenth Informational Supplement (Aerobic Dilution). NCCLS, Wayne, Pa.).
A general note: Broth dilution looks for growth in wells or tubes with falling amounts of substance.

The test system is the same in data set [2]. The experiment in a line: filter paper disk / disc diffusion assay on Bacillus subtilis plate. How it is done:
The Bacillus subtilis ATCC strain 6633 was used at 9.2 mL of a log phase culture with […] per 200 mL of Luria-Bertani medium containing 1.5% (w/v) agar. The plate was incubated at 28° C. for 24 hours and the diameter of the clearing zone was measured. Dilutions of the extract and fractions from HPLC chromatography were tested in the same way. In some cases, fractions from the column were tested by evaporating them to dryness, redissolving in methanol and simply spotting 10 μL of the methanolic sample directly onto the bacteriological plate and proceeding as described.
For orientation: A growth-free zone around the sample is the usual read-out of agar diffusion tests.

For data set [3], the system named is NCl-H460, a human-derived small cell lung carcinoma line. The experiment in a line: mammalian cell growth, WST-1 proliferation assay. The conditions noted are these: concentrations up to 100 μg/mL, 19 hours at 37° C. How it is done: (§1) Effects on mammalian cell growth were determined by exposing cultures of two mammalian neoplastic cell lines (SP2/0—Ag8, a non-secreting mouse myeloma cell line derived from Balb/C mice, and NCl-H460, a human-derived […] lung carcinoma line) to fixed dilutions of the methanolic extract of N. triodiae or to fixed concentrations of fraction 23, (6) for 19 hours at 37° C. Cells were grown in wells of sterile 96-well tissue culture cluster plates by standard methods. Cell growth was estimated using the Cell Proliferation Reagent WST-1 (Roche Diagnostics) according to the manufacturer's instructions and proliferation data were compared with those from untreated control wells.
A general note: Formazan colour is commonly taken as a measure of viable cells.

Data set [4] deals with SP2/0—Ag8, a non-secreting mouse myeloma cell line. The experiment in a line: mammalian cell growth, WST-1 proliferation assay. The conditions noted are these: concentrations up to 30 μg/mL, 19 hours at 37° C. How it is done: as §1
[5] abbreviates: unknown concentration and mass of the compound, disc diffusion assay.

With `CC1=C2CC[C@@H](C)CC/C=C(/C)[C@@H]3CC[C@@](C)([C@H]13)[C@@H](O)[C@@H]2O` [Compound 9, 1(15),8(9)-trinervitadiene-2β,3α-diol], in data set [1] (as restated in the discussion), the minimum inhibitory concentration is recorded as no more than 25 parts per million. In addition, the MIC in data set [1] (broth microdilution, estimated) is no more than 25 µg/mL. Further, the “antimicrobial potency relative to the triol (6) and diol (7)” value in data set [1] (fold more potent) is 2-4 times. The “significant inhibitory activity as low as” value in data set [1] (lowest concentration with significant inhibitory activity) is 12 parts per million. This compound had a clear zone diameter in data set [2] (setting [5]) of 15 mm.
For `C=C1CCC[C@H](C)CCC2=C(C)[C@@H]3[C@H]1C[C@@H](OC(C)=O)[C@]3(CO)[C@@H](O)C2` [Compound 8, 1(15),8(19)-trinervitadiene-3α,5α,18-triol 5-acetate], the MIC in data set [1] (broth microdilution, estimated) was greater than 50 µg/mL. Besides, the “antimicrobial activity / potency (in words)” value in data set [1] is on record as “reduced but detectable antimicrobial activity”; in data set [1] (listed as monoacetate) it was “active, albeit less potent than the diols or triol”. This compound also came in with a clear zone diameter in data set [2] (setting [5]) of 15 mm.
In the case of `C=C1CCC[C@H](C)CCC2=C(C)[C@@H]3[C@H]1C[C@@H](O)[C@]3(C)[C@@H](O)C2` [Compound 7, 1(15),8(19)-trinervitadiene-3α,5α-diol], in data set [1] (broth microdilution, estimated), the MIC is no more than 50 µg/mL. Further, in data set [1], the “antimicrobial activity / potency (in words)” value is “reduced but detectable antimicrobial activity”. Besides, the zone of inhibition at 5 µg/disc in data set [2] (Bacillus subtilis, ATCC6633, 5 μg of compound, disc diffusion assay, read-out: clear zone diameter) was found to be 7 mm.
As for `C=C1CCC[C@H](C)CCC2=C(C)[C@@H]3[C@H]1C[C@@H](O)[C@]3(CO)[C@@H](O)C2` [Compound 6, 1(15),8(19)-trinervitadiene-3α,5α,18-triol], in data set [3], the “inhibitory effect on proliferation of NCl-H460 cells” value is on record as “no detectable inhibitory effect”. The “inhibitory effect on proliferation of SP2/0 cells” value in data set [4] is “no detectable inhibitory effect”. The minimum inhibitory concentration in data set [1] (as restated in the discussion) is given as no more than 50 parts per million. For the same compound, in data set [1] (broth microdilution, estimated), the MIC is no more than 50 µg/mL. In data set [1], the “antimicrobial activity / potency (in words)” value is “moderately good antimicrobial potency”. Further, the “antimicrobial activity of extracts and HPLC fractions (in words)” value in data set [2] (B. subtilis plate test) was “antimicrobial activity was detected”.
Consider “1(15),8(19)-trinervitadiene-3α,5α,18-triol 3,5,18-triacetate [Compound 10]”, for which, in data set [1] (broth microdilution, estimated), the minimum inhibitory concentration was greater than 50 µg/mL. In addition, the “antimicrobial activity / potency (in words)” value was “reduced but detectable antimicrobial activity” in data set [1] and “active, albeit less potent than the diols or triol” in data set [1] (listed as triacetate). Moreover, the clear zone diameter in data set [2] (5 μg of compound, disc diffusion assay) is on record as 11 mm.

What is called MIC is the lowest concentration found to suppress growth.
